According to patent publication US6737383B1, “Herbicidal oxadiazolidines” (priority 1999, dated 2004):

Assays:
wild oat = experiment: Test B pre/postemergence wild oat; type: in vivo, Avena fatua; conditions: for Plant response rating, Wild oats: scale of 0 to 10 where 0 is no effect and 10 is complete control
Procedure, shortened: (§1)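 Response is a visual 0-to-10 score relative to untreated plants, where 0 means no effect and 10 means complete control, taken twelve to sixteen days after application. Treatments went onto soil at planting and onto foliage of 1- to 4-leaf plants, using a surfactant-containing non-phytotoxic solvent.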

corn = experiment: Test B pre/postemergence corn; type: in vivo, Zea mays
Procedure, shortened: as §1

wheat = experiment: Test B pre/postemergence wheat; type: in vivo, Triticum aestivum; conditions: for Plant response rating, Wheat: scale of 0 to 10 where 0 is no effect and 10 is complete control
Procedure, shortened: as §1

pigweed = experiment: Test B pre/postemergence pigweed; type: in vivo, Amaranthus retroflexus; conditions: for Plant response rating, Redroot pigweed: scale of 0 to 10 where 0 is no effect and 10 is complete control
Procedure, shortened: as §1

rice = experiment: Test B flood test rice; type: in vivo, Oryza sativa
Procedure, shortened: (§2)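 Flood test on plants grown to the 2-leaf stage; treated plants kept in greenhouse twelve to sixteen days, then visually rated against controls on a 0 (no effect) to 10 (complete control) scale.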

surinam grass = experiment: Test B pre/postemergence surinam grass; type: in vivo, Brachiaria decumbens
Procedure, shortened: as §1

crabgrass = experiment: Test B pre/postemergence crabgrass; type: in vivo, Digitaria sanguinalis
Procedure, shortened: as §1

velvetleaf = experiment: Test B pre/postemergence velvetleaf; type: in vivo, Abutilon theophrasti; conditions: for Plant response rating, Velvetleaf: scale of 0 to 10 where 0 is no effect and 10 is complete control
Procedure, shortened: as §1

morningglory = experiment: Test B pre/postemergence morningglory; type: in vivo, Ipomoea hederacea; conditions: for Plant response rating, Morningglory: scale of 0 to 10 where 0 is no effect and 10 is complete control
Procedure, shortened: as §1

cocklebur = experiment: Test B pre/postemergence cocklebur; type: in vivo, Xanthium strumarium
Procedure, shortened: as §1

bedstraw = experiment: Test B pre/postemergence bedstraw; type: in vivo, Galium aparine
Procedure, shortened: as §1

bamyardgrass = experiment: Test B flood test barnyardgrass; type: in vivo, Echinochloa crus-galli
Procedure, shortened: as §2

soybean = experiment: Test B pre/postemergence soybean; type: in vivo, Glycine max; conditions: for Plant response rating, Soybean: scale of 0 to 10 where 0 is no effect and 10 is complete control
Procedure, shortened: as §1

blackgrass = experiment: Test B pre/postemergence blackgrass; type: in vivo, Alopecurus myosuroides
Procedure, shortened: as §1

giant foxtail = experiment: Test B pre/postemergence giant foxtail; type: in vivo, Setaria faberii; conditions: for Plant response rating, Giant foxtail: scale of 0 to 10 where 0 is no effect and 10 is complete control
Procedure, shortened: as §1

smallflower flatsedge = experiment: Test B flood test smallflower flatsedge; type: in vivo, Cyperus difformis
Procedure, shortened: as §2

[1] = Postemergence, Rate 250 g/ha, scale 0 to 10
[2] = Preemergence, Rate 250 g/ha, scale 0 to 10, 0 is no effect, 10 is complete control
[3] = Preemergence, Rate 500 g/ha, scale 0 to 10, 0 is no effect, 10 is complete control
[4] = Rate 62 g/ha, Postemergence, scale 0 to 10 (0 no effect, 10 complete control)
[5] = Rate 125 g/ha, Postemergence, scale 0 to 10, 0 is no effect, 10 is complete control
[6] = Postemergence, Rate 500 g/ha, scale of 0 to 10 where 0 is no effect and 10 is complete control
[7] = Preemergence, Rate 62 g/ha, scale of 0 to 10 where 0 is no effect and 10 is complete control
[8] = Preemergence, Rate 125 g/ha, scale of 0 to 10 where 0 is no effect and 10 is complete control
[9] = Rate 62 g/ha, flood test species, Pre-emergence, visual evaluation after twelve to sixteen days
[10] = Rate 125 g/ha, under heading Pre-emergence, flood test species, visual evaluation after twelve to sixteen days
[11] = Rate 250 g/ha, Pre-emergence (flood test species), scale 0 to 10, 0 is no effect, 10 is complete control
[12] = Rate 500 g/ha, Pre-emergence, flood test species, scale 0 to 10 (0 no effect, 10 complete control)

CC(C)N(C(=O)n1oc(=O)n(C(C)C(=O)N(C)C)c1=O)c1ccccc1 (centres unmarked) [Compound 479]
Wild oats plant response rating (wild oat; [1]): 0
Plant response rating, Wild oats (wild oat; Preemergence, Rate 62 g/ha): 0
Plant response rating, Wild oats (wild oat; Preemergence, Rate 125 g/ha): 4
Wild oats plant response rating (wild oat; [2]): 5
Wild oats plant response rating (wild oat; [3]): 7
Wild oats plant response rating (wild oat; [4]): 0
Wild oats plant response rating (wild oat; [5]): 0
Corn plant response rating (corn; [1]): 0
Corn plant response rating (corn; [6]): 4
Plant response rating, Corn (corn; [7]): 0
Plant response rating, Corn (corn; [8]): 0
Corn plant response rating (corn; [2]): 0
Corn plant response rating (corn; [3]): 3
Corn plant response rating (corn; [4]): 0
Corn plant response rating (corn; [5]): 0
Wheat plant response rating (wheat; [1]): 0
Plant response rating, Wheat (wheat; Preemergence, Rate 62 g/ha): 0
Plant response rating, Wheat (wheat; Preemergence, Rate 125 g/ha): 0
Wheat plant response rating (wheat; [2]): 3
Wheat plant response rating (wheat; [3]): 7
Wheat plant response rating (wheat; [4]): 0
Wheat plant response rating (wheat; [5]): 0
Redroot pigweed plant response rating (pigweed; [1]): 2
Plant response rating, Redroot pigweed (pigweed; Preemergence, Rate 62 g/ha): 0
Plant response rating, Redroot pigweed (pigweed; Preemergence, Rate 125 g/ha): 3
Redroot pigweed plant response rating (pigweed; [2]): 6
Redroot pigweed plant response rating (pigweed; [3]): 6
Redroot pigweed plant response rating (pigweed; [4]): 0
Redroot pigweed plant response rating (pigweed; [5]): 2
Plant response rating, Rice (0 to 10 scale, 0 is no effect, 10 is complete control) (rice; [9]): 0
Rice plant response rating (0 to 10 scale, 0 is no effect, 10 is complete control) (rice; [10]): 0
Rice plant response rating (rice; [11]): 0
Rice plant response rating (rice; [12]): 0
B. signalgrass plant response rating (surinam grass; Postemergence, Rate 250 g/ha, scale 0 to 10, 0 no effect, 10 complete control): 3
B. signalgrass plant response rating (surinam grass; [6]): 7
Plant response rating, B. signalgrass (surinam grass; [7]): 0
Plant response rating, B. signalgrass (surinam grass; [8]): 5
B. signalgrass plant response rating (surinam grass; [2]): 6
B. signalgrass plant response rating (surinam grass; [3]): 9
B. signalgrass plant response rating (surinam grass; [4]): 0
B. signalgrass plant response rating (surinam grass; [5]): 2
Crabgrass plant response rating (crabgrass; [1]): 6
Crabgrass plant response rating (crabgrass; [6]): 9
Plant response rating, Crabgrass (crabgrass; [8]): 8
Crabgrass plant response rating (crabgrass; [2]): 9
Crabgrass plant response rating (crabgrass; [3]): 10
Crabgrass plant response rating (crabgrass; [4]): 2
Crabgrass plant response rating (crabgrass; [5]): 3
Velvetleaf plant response rating (velvetleaf; [1]): 0
Plant response rating, Velvetleaf (velvetleaf; Preemergence, Rate 62 g/ha): 0
Plant response rating, Velvetleaf (velvetleaf; Preemergence, Rate 125 g/ha): 0
Velvetleaf plant response rating (velvetleaf; [2]): 1
Velvetleaf plant response rating (velvetleaf; [3]): 5
Velvetleaf plant response rating (velvetleaf; [4]): 0
Velvetleaf plant response rating (velvetleaf; [5]): 0
Morningglory plant response rating (morningglory; [1]): 10
Plant response rating, Morningglory (morningglory; Preemergence, Rate 62 g/ha): 0
Plant response rating, Morningglory (morningglory; Preemergence, Rate 125 g/ha): 0
Morningglory plant response rating (morningglory; [2]): 4
Morningglory plant response rating (morningglory; [3]): 4
Morningglory plant response rating (morningglory; [4]): 7
Morningglory plant response rating (morningglory; [5]): 10
Cocklebur plant response rating (cocklebur; [1]): 0
Cocklebur plant response rating (cocklebur; [6]): 0
Plant response rating, Cocklebur (cocklebur; [7]): 0
Plant response rating, Cocklebur (cocklebur; [8]): 0
Cocklebur plant response rating (cocklebur; [2]): 0
Cocklebur plant response rating (cocklebur; [4]): 0
Cocklebur plant response rating (cocklebur; [5]): 0
Bedstraw plant response rating (bedstraw; [1]): 0
Bedstraw plant response rating (bedstraw; [2]): 0
Bedstraw plant response rating (bedstraw; [3]): 0
Bedstraw plant response rating (bedstraw; [4]): 0
Bedstraw plant response rating (bedstraw; [5]): 0
Plant response rating, Barnyardgrass (0 to 10 scale, 0 is no effect, 10 is complete control) (bamyardgrass; [9]): 0
Barnyardgrass plant response rating (0 to 10 scale, 0 is no effect, 10 is complete control) (bamyardgrass; [10]): 0
Barnyardgrass plant response rating (bamyardgrass; [11]): 0
Barnyardgrass plant response rating (bamyardgrass; [12]): 0
Soybean plant response rating (soybean; [1]): 3
Plant response rating, Soybean (soybean; Preemergence, Rate 62 g/ha): 0
Plant response rating, Soybean (soybean; Preemergence, Rate 125 g/ha): 0
Soybean plant response rating (soybean; [2]): 0
Soybean plant response rating (soybean; [3]): 0
Soybean plant response rating (soybean; [4]): 1
Soybean plant response rating (soybean; [5]): 1
Blackgrass plant response rating (blackgrass; [1]): 4
Blackgrass plant response rating (blackgrass; [6]): 7
Plant response rating, Blackgrass (blackgrass; [7]): 2
Plant response rating, Blackgrass (blackgrass; [8]): 6
Blackgrass plant response rating (blackgrass; [2]): 8
Blackgrass plant response rating (blackgrass; [3]): 9
Blackgrass plant response rating (blackgrass; [4]): 0
Blackgrass plant response rating (blackgrass; [5]): 0
Giant foxtail plant response rating (giant foxtail; [1]): 6
Plant response rating, Giant foxtail (giant foxtail; Preemergence, Rate 62 g/ha): 7
Plant response rating, Giant foxtail (giant foxtail; Preemergence, Rate 125 g/ha): 9
Giant foxtail plant response rating (giant foxtail; [2]): 10
Giant foxtail plant response rating (giant foxtail; [3]): 10
Giant foxtail plant response rating (giant foxtail; [4]): 0
Giant foxtail plant response rating (giant foxtail; [5]): 3
Plant response rating, S. Flatsedge (0 to 10 scale, 0 is no effect, 10 is complete control) (smallflower flatsedge; [9]): 0
S. Flatsedge plant response rating (0 to 10 scale, 0 is no effect, 10 is complete control) (smallflower flatsedge; [10]): 0
S. Flatsedge plant response rating (smallflower flatsedge; [11]): 0
S. Flatsedge plant response rating (smallflower flatsedge; [12]): 0
